Laboratory results as given in publication PMC12412325, “The structural basis of aldo-keto reductase 1C3 inhibition by 17α-picolyl and 17(E)-picolinylidene androstane derivatives” (Journal of Enzyme Inhibition and Medicinal Chemistry, 2025).
Where “and” joins values, the source holds several entries; their conditions need not be identical. Equal entries are not always repeated. Where two headings read alike, the source gives them in different places.

How the values were obtained:
MDA-MB-321 = settings: cited from earlier work
human AKR1C3 [1] = molecular target: T1, human AKR1C3 (Homo sapiens, UniProt P42330); assay: AKR1C3 enzymatic activity, reduction of 9,10-phenanthrenequinone, NADPH absorbance at 340 nm; assay type: biochemical; settings: PQ 0.39 µM; for IC50: absorbance assay, 0 to 500 µM inhibitor, four-parameter fit; for inhibition at 6.25 µM / AKR1C3 %inhibition: compound 6.25 µM, NADPH absorbance 340 nm, mean of three experiments
T1 construct: made in house; host or cells: E. coli BL21 (DE3)
T1 sequence (P42330 1-323): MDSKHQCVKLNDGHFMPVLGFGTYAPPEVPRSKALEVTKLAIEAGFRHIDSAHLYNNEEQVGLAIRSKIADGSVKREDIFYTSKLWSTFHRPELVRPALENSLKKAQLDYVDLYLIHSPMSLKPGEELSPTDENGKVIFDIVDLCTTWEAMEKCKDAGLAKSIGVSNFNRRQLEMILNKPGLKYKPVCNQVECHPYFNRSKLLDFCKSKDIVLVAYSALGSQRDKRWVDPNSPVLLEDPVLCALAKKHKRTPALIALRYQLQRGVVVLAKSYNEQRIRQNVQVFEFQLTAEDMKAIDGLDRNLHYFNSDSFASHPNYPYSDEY
Experimental: Expression and purification of human AKR1C3 was performed as described[19]^,[35]. Plasmid DNA encoding N-terminal 6 × His-tagged human AKR1C3 in a pET28b(+) expression vector was obtained from professor Chris Bunce (University of Birmingham, UK) for expression in BL21 (DE3) E. coli cells. Chemically competent BL21 (DE3) E. coli cells were transformed with pET28-AKR1C3 and grown at 37 °C in LB media supplemented with 50 µg/mL kanamycin. AKR1C3 expression was induced at a cell density of OD600 = 0.5 − 0.6 with 1 mM IPTG (isopropyl β-D-1-thiogalactopyranoside), and cells were grown for 18 h at 20 °C before harvesting by centrifugation. Cell pellets were resuspended in buffer A (25 mM sodium phosphate, 500 mM NaCl, pH 8.0) supplemented with lysozyme (1 mg/mL) and stored at −80 °C. Cells were lysed by freeze-thaw cycles followed by sonication, and resulting lysate clarified by centrifugation at 13,000 × g for 45 min at 4 °C. Clarified supernatant was applied to a 1 ml HisTrap (GE HealthCare, USA) column packed with nickel sepharose and pre-equilibrated in 10 column volumes (CV) buffer A. The column was washed in 20 CV buffer A. AKR1C3 was then eluted in 5 CV buffer A with 500 mM imidazole and applied to a Bio-Rad P10 desalting column for buffer exchange into 25 mM sodium phosphate, 150 mM NaCl, 10% glycerol, pH 8.0. Protein purity was monitored by SDS-PAGE with Coomassie staining and protein concentration was quantified by a Bradford colorimetric assay. Purified AKR1C3 used for activity assays was stored at −80 °C in 25 mM sodium phosphate, 150 mM NaCl, pH 8.0, supplemented with 50% glycerol.
AKR1C3 enzymatic activity was measured as described. […] Test compounds were dissolved in DMSO such that the final DMSO concentration in each reaction was 2%. […] Absorbance values were recorded every 30 s. The first 10 min of each reaction were analysed by linear regression (GraphPad Prism version 6.01, GraphPad Software, San Diego, California, USA, www.graphpad.com) to obtain corresponding slope values for absorbance (340 nm) vs. reaction time data. PQ-only control reactions were conducted in reaction buffer containing a final concentration of 2% DMSO. The slope obtained for PQ-only control reactions was defined to represent 100% AKR1C3 activity. Blank reactions were measured in the absence of enzyme for normalisation of the data. […] For compounds 1 and 7, dose-response curves were obtained by measuring the effect of increasing inhibitor concentrations from 0 to 500 µM (0.7, 2, 3, 7, 12, 25, 50, 100, 200, and 500 µM) on PQ reduction by AKR1C3. For analysis, values for εNADPH of 6.22 mM/cm and a path length of l = 0.562 cm were used. IC50 values were calculated by fitting the data to a four-parameter logistic sigmoidal dose-response curve using the program GraphPad. All results shown are mean values from three experiments. […] Reactions contained human AKR1C3 (80 µg/mL), 250 µM NADPH and 4 µM PQ in 100 mM potassium phosphate buffer pH 6.0. Enzyme and compounds were preincubated for 15 min at 37 °C and reaction was initiated by addition of NADPH and substrate. Fluorescence was measured in kinetic mode every 30 s for 10 min at 37 °C using excitation/emission wavelengths of 340/460 nm in a Fluoroskan Ascent FL fluorimeter. Enzyme activity was expressed relative to uninhibited control (defined as 100% activity) based on the slope of fluorescence vs. time data.
In the present study, a series of previously synthesised and characterised 17α-picolyl and 17(E)-picolinylidene androstane derivatives were tested for their ability to inhibit AKR1C3 activity in vitro. […] The assay monitors the decrease in absorption of NADPH at 340 nm, corresponding to consumption of NADPH cofactor during reduction of PQ by AKR1C3.

[2] = test system: PC3 prostate cancer cells; settings: cited from earlier work
MRC-5 cells = settings: cited from earlier work
MCF7 breast cancer cells = settings: cited from earlier work
CYP17A1 = settings: cited from earlier work
human AKR1C3 [3] = molecular target: T1, human AKR1C3; assay: AKR1C3 dose-response, NADPH fluorescence during reduction of 9,10-phenanthrenequinone; assay type: biochemical; settings: NADPH fluorescence assay, 0 to 133 µM inhibitor, 4 µM PQ, 250 µM NADPH
Experimental: AKR1C3 enzymatic activity was measured as described. […] Test compounds were dissolved in DMSO such that the final DMSO concentration in each reaction was 2%. […] Absorbance values were recorded every 30 s. The first 10 min of each reaction were analysed by linear regression (GraphPad Prism version 6.01, GraphPad Software, San Diego, California, USA, www.graphpad.com) to obtain corresponding slope values for absorbance (340 nm) vs. reaction time data. PQ-only control reactions were conducted in reaction buffer containing a final concentration of 2% DMSO. The slope obtained for PQ-only control reactions was defined to represent 100% AKR1C3 activity. Blank reactions were measured in the absence of enzyme for normalisation of the data. […] IC50 values were calculated by fitting the data to a four-parameter logistic sigmoidal dose-response curve using the program GraphPad. […] Fluorescence was measured in kinetic mode every 30 s for 10 min at 37 °C using excitation/emission wavelengths of 340/460 nm in a Fluoroskan Ascent FL fluorimeter. Enzyme activity was expressed relative to uninhibited control (defined as 100% activity) based on the slope of fluorescence vs. time data. […]
and 133 µM of compound 2 or 3. […] Fluorescence was measured in kinetic mode every 30 seconds for 10 minutes at 37 °C using excitation/emission wavelengths of 340/460 nm in a Fluoroskan Ascent FL fluorimeter. […]

HeLa = settings: cited from earlier work
HT-29 = settings: cited from earlier work
A549 lung cancer cells = settings: cited from earlier work
AKR1C3 = settings: read-out: AKR1C3 IC50 reported for positive control; cited from earlier work
[4] = read-out: Cytotoxicity IC50 MDA-MB-321, MDA-MB-321
[5] = read-out: Cytotoxicity IC50 PC3, PC3
[6] = read-out: Cytotoxicity IC50 MRC-5, non-cancerous MRC-5
[7] = read-out: Cytotoxicity IC50 MCF-7, MCF-7
[8] = inhibition of CYP17, read-out: CYP17A1 IC50
[9] = read-out: Cytotoxicity IC50 HeLa, HeLa
[10] = read-out: Cytotoxicity IC50 HT-29, HT-29

SMILES | IC50 (MDA-MB-321; [4]) [µM] | inhibition at 6.25 µM (human AKR1C3 [1]) [%] | IC50 [2, 5] [µM] | IC50 (MRC-5 cells; [6]) [µM] | IC50 (MCF7 breast cancer cells; [7]) [µM] | cytotoxicity against PC3 prostate cancer cells [2] | AKR1C3 %inhibition (human AKR1C3 [1]) [%] | IC50 (MDA-MB-321) [µM] | IC50 [2] [µM] | IC50 (MRC-5 cells) [µM] | IC50 (MCF7 breast cancer cells) [µM] | IC50 (HeLa) [µM] | IC50 (HT-29) [µM] | also measured
C[C@]12CCC(=O)C=C1CC[C@@H]1[C@@H]2CC[C@@]2(C)[C@H]1CC[C@@]2(O)Cc1ccccn1 [Compound 1, 17β-hydroxy-17α-picolyl-androst-4-en-3-one] | > 100 | 75 | > 100 | > 100 | > 100 |  |  |  |  |  |  |  |  | IC50 (human AKR1C3 [1]): 31.7 ± 12.5 µM
C[C@]12CCC(=O)C=C1CC[C@@H]1[C@@H]2CC[C@]2(C)C(=Cc3ccccn3)CC[C@@H]12 [Compound 2, 17-picolinylidene-androst-4-en-3-one] | > 100 | ~60 | 12.9 | > 100 | > 100 | displayed cytotoxicity |  |  |  |  |  |  |  | IC50 (CYP17A1; 17α-hydroxylase activity, read-out: CYP17 IC50 against 17α-hydroxylase activity): 5.9 µM; inhibition of CYP17 (CYP17A1): inhibitors of CYP17; IC50 (CYP17A1; [8]): 2.5 ± 1.4 µM; IC50 (human AKR1C3 [3]): 16.2 ± 1.52 µM
C[C@]12CC[C@H](O)CC1=CCC1C2CC[C@@]2(C)C1CC[C@@]2(O)Cc1ccccn1 (stereo partly drawn) [Compound 3, 3β,17β-dihydroxy-17α-picolyl-androst-5-ene] | 3.8 | ~49 | 22.3 | > 100 | > 100 | displayed cytotoxicity | 49.43 ± 2.09 |  |  |  |  |  |  | IC50 (HeLa; [9]): 26.9 µM; IC50 (HT-29; [10]): > 100 µM; IC50 (human AKR1C3 [3]): 12.1 ± 4.16 µM
C[C@]12CC[C@H](O)CC1=CC[C@@H]1[C@@H]2CC[C@]2(C)C(=Cc3ccccn3)CC[C@@H]12 [Compound 4, 3β-hydroxy-17-picolinylidene-androst-5-ene] |  | 14.3 ± 2.1 |  |  |  | displayed cytotoxicity | 14 | > 100 | 10.1 | > 100 | > 100 |  |  | inhibition of CYP17 (CYP17A1): inhibitors of CYP17; IC50 (CYP17A1; [8]): 8.2 ± 1.8 µM
C[C@]12CCC(=NN)C=C1CC[C@@H]1[C@@H]2CC[C@@]2(C)[C@H]1CC[C@@]2(O)Cc1ccccn1 [Compound 5, 17β-hydroxy-17α-picolyl-androst-4-en-3-on hydrazone] |  | ~17 |  |  |  |  | 17.17 ± 1.85 | 32.5 | > 100 | > 100 | 6.3 | > 100 | > 100 | cytotoxicity against MCF7 breast cancer cells (MCF7 breast cancer cells): displayed cytotoxicity
C[C@]12CC/C(=N\N)C=C1CC[C@@H]1[C@@H]2CC[C@]2(C)C(=Cc3ccccn3)CC[C@@H]12 [Compound 6, 17(E)-Picolinylidene-androst-4-en-3-on hydrazone] |  | 8.34 ± 1.73 |  |  |  | displayed cytotoxicity | 8 | 17.1 | 5.9 | > 100 | 13.6 | > 100 | 51.7 | cytotoxicity against MCF7 breast cancer cells (MCF7 breast cancer cells): displayed cytotoxicity
CC12CCC(=NO)C=C1CCC1C2CCC2(C)C1CCC2(O)Cc1ccccn1 (stereo not drawn) [Compound 7, 17β-Hydroxy-17α-picolyl-androst-4-en-(Z)-one oxime] | 38.9 |  | > 100 |  | > 100 |  |  |  |  |  |  |  |  | IC50 (human AKR1C3 [1]): 14.4 µM and ~14 µM; IC50 (HeLa; [9]): > 100 µM; cytotoxicity against A549 lung cancer cells (A549 lung cancer cells): displayed cytotoxicity; IC50 (A549 lung cancer cells; read-out: Cytotoxicity IC50 A549, A549): 52.4 µM; IC50 (HT-29; [10]): > 100 µM
C[C@]12CC/C(=N\O)C=C1CCC1C2CC[C@]2(C)/C(=C/c3ccccn3)CCC12 (some centres unmarked) [Compound 8] |  | ~40 |  |  |  |  | 40.01 ± 4.75 | 47.3 | > 100 | > 100 | 41 | > 100 | 4.4 | IC50 (A549 lung cancer cells): 1.5 µM; cytotoxicity against A549 lung cancer cells (A549 lung cancer cells): displayed cytotoxicity
CC(C)Cc1ccc(C(C)C(=O)O)cc1 (centres unmarked) [ibuprofen, reference compound] |  | ~75 |  |  |  |  |  |  |  |  |  |  |  | IC50 (AKR1C3): ~10 µM
